# Read-outs that look alike come from different tables or passages of the source.
# Tests used:
# E. faecalis ATCC 29212 [1] = test: microbe, parasite or virus in culture; details: Enterococcus faecalis, ATCC29212, 24 h, read-out: MIC, E. faecalis ATCC29212
# [2] = system: vancomycin‐resistant E. faecium clinical isolates with reduced susceptibility to daptomycin (n = 26); test: microbe, parasite or virus in culture; details: Enterococcus faecium; for MIC: 24 h
# E. faecalis ATCC 29212 [3] = details: reference strain in Table S5; broth microdilution, MHB II, 37 °C, 24 h; daptomycin with 50 µg/mL Ca2+; mean of two independent experiments
# [4] = system: vancomycin‐resistant E. faecium clinical isolates with reduced susceptibility to daptomycin (n = 26); details: 24 h
smiles,measurement,setting,value
CC1(C)S[C@@H]2[C@H](NC(=O)[C@H](N)c3ccccc3)C(=O)N2[C@H]1C(=O)O [Ampicillin],MIC,E. faecalis ATCC 29212 [1],2 µg/mL
same,MIC,"[2]; read-out: MIC, Enterococcus faecium isolate 1",> 64 µg/mL
same,MIC,"[2]; read-out: MIC, Enterococcus faecium isolate 2",> 64 µg/mL
same,MIC,"[2]; read-out: MIC, Enterococcus faecium isolate 3",64 µg/mL
same,MIC,"[2]; read-out: MIC, Enterococcus faecium isolate 4",> 64 µg/mL
same,MIC,"[2]; read-out: MIC, Enterococcus faecium isolate 5",> 64 µg/mL
same,MIC,"[2]; read-out: MIC, Enterococcus faecium isolate 6",> 64 µg/mL
same,MIC,"[2]; read-out: MIC, Enterococcus faecium isolate 7",> 64 µg/mL
same,MIC,"[2]; read-out: MIC, Enterococcus faecium isolate 8",> 64 µg/mL
same,MIC,"[2]; read-out: MIC, Enterococcus faecium isolate 9",> 64 µg/mL
same,MIC,"[2]; read-out: MIC, Enterococcus faecium isolate 10",> 64 µg/mL
same,MIC,"[2]; read-out: MIC, Enterococcus faecium isolate 11",> 64 µg/mL
same,MIC,"[2]; read-out: MIC, Enterococcus faecium isolate 12",> 64 µg/mL
same,MIC,"[2]; read-out: MIC, Enterococcus faecium isolate 13",> 64 µg/mL
same,MIC,"[2]; read-out: MIC, Enterococcus faecium isolate 14",> 64 µg/mL
same,MIC,"[2]; read-out: MIC, Enterococcus faecium isolate 15",> 64 µg/mL
same,MIC,"[2]; read-out: MIC, Enterococcus faecium isolate 16",> 64 µg/mL
same,MIC,"[2]; read-out: MIC, Enterococcus faecium isolate 17",> 64 µg/mL
same,MIC,"[2]; read-out: MIC, Enterococcus faecium isolate 18",> 64 µg/mL
same,MIC,"[2]; read-out: MIC, Enterococcus faecium isolate 19",> 64 µg/mL
same,MIC,"[2]; read-out: MIC, Enterococcus faecium isolate 20",> 64 µg/mL
same,MIC,"[2]; read-out: MIC, Enterococcus faecium isolate 21",> 64 µg/mL
same,MIC,"[2]; read-out: MIC, Enterococcus faecium isolate 22",> 64 µg/mL
same,MIC,"[2]; read-out: MIC, Enterococcus faecium isolate 23",> 64 µg/mL
same,MIC,"[2]; read-out: MIC, Enterococcus faecium isolate 24",> 64 µg/mL
same,MIC,"[2]; read-out: MIC, Enterococcus faecium isolate 25",> 64 µg/mL
same,MIC,"[2]; read-out: MIC, Enterococcus faecium isolate 26",> 64 µg/mL
same,MIC50,[2]; VRE,> 64 µg/mL
same,MIC90,[2]; VRE,> 64 µg/mL
O=C(O)c1cn(C2CC2)c2cc(N3CCNCC3)c(F)cc2c1=O [Ciprofloxacin],MIC,E. faecalis ATCC 29212 [1],2 µg/mL
"CCCCCCCCCC(=O)N[C@@H](Cc1c[nH]c2ccccc12)C(=O)N[C@H](CC(N)=O)C(=O)N[C@@H](CC(=O)O)C(=O)N[C@@H]1C(=O)NCC(=O)N[C@@H](CCCN)C(=O)N[C@@H](CC(=O)O)C(=O)N[C@H](C)C(=O)N[C@@H](CC(=O)O)C(=O)NCC(=O)N[C@H](CO)C(=O)N[C@@H]([C@H](C)CC(=O)O)C(=O)N[C@@H](CC(=O)c2ccccc2N)C(=O)O[C@@H]1C [Daptomycin, daptomycin]","MIC, E. faecalis ATCC29212",E. faecalis ATCC 29212 [3],4 µg/mL
same,MIC50,[4],8 µg/mL
same,MIC90,[4],8 µg/mL
same,MIC Range,[4],8 to 16 µg/mL
same,"MIC, Enterococcus faecium isolate 1",[4],8 µg/mL
same,"MIC, Enterococcus faecium isolate 2",[4],8 µg/mL
same,"MIC, Enterococcus faecium isolate 3",[4],8 µg/mL
same,"MIC, Enterococcus faecium isolate 4",[4],8 µg/mL
same,"MIC, Enterococcus faecium isolate 5",[4],8 µg/mL
same,"MIC, Enterococcus faecium isolate 6",[4],8 µg/mL
same,"MIC, Enterococcus faecium isolate 7",[4],8 µg/mL
same,"MIC, Enterococcus faecium isolate 8",[4],8 µg/mL
same,"MIC, Enterococcus faecium isolate 9",[4],8 µg/mL
same,"MIC, Enterococcus faecium isolate 10",[4],8 µg/mL
same,"MIC, Enterococcus faecium isolate 11",[4],8 µg/mL
same,"MIC, Enterococcus faecium isolate 12",[4],8 µg/mL
same,"MIC, Enterococcus faecium isolate 13",[4],8 µg/mL
same,"MIC, Enterococcus faecium isolate 14",[4],8 µg/mL
same,"MIC, Enterococcus faecium isolate 15",[4],8 µg/mL
same,"MIC, Enterococcus faecium isolate 16",[4],8 µg/mL
same,"MIC, Enterococcus faecium isolate 17",[4],8 µg/mL
same,"MIC, Enterococcus faecium isolate 18",[4],8 µg/mL
same,"MIC, Enterococcus faecium isolate 19",[4],8 µg/mL
same,"MIC, Enterococcus faecium isolate 20",[4],8 µg/mL
same,"MIC, Enterococcus faecium isolate 21",[4],8 µg/mL
same,"MIC, Enterococcus faecium isolate 22",[4],8 µg/mL
same,"MIC, Enterococcus faecium isolate 23",[4],8 µg/mL
same,"MIC, Enterococcus faecium isolate 24",[4],16 µg/mL
same,"MIC, Enterococcus faecium isolate 25",[4],16 µg/mL
same,"MIC, Enterococcus faecium isolate 26",[4],8 µg/mL

# Reference: PMC12171682, “Saarvienin A—A Novel Glycopeptide with Potent Activity against Drug‐Resistant Bacteria” (Angewandte Chemie (International Ed. in English), 2025)
